Measurements from article doi:10.1101/2020.06.20.162875v1 (biorxiv, 2020).
Read-outs that look alike come from different tables or passages of the source.

What was measured:
[1] = molecular target: T1, PNA (peanut lectin, peanut agglutinin) (Arachis hypogaea, UniProt P02872); test: isothermal titration calorimetry; format: binding
T1 sequence (P02872 24-259): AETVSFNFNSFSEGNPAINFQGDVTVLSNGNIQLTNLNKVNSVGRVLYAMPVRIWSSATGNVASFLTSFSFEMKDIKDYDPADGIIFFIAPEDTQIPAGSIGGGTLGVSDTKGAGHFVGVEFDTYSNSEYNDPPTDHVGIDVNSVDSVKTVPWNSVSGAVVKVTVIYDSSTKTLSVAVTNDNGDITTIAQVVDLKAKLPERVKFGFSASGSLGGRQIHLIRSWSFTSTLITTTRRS

[2] = molecular target: T1, PNA (peanut lectin, peanut agglutinin); test: isothermal titration calorimetry; format: binding; remark: listed apart in the source

SMILES | Kd [2] [µM] | further results
OC[C@H]1O[C@@H](O[C@H]2[C@H](O)[C@@H](O)C(O)O[C@@H]2CO)[C@H](O)[C@@H](O)[C@H]1O (some centres unmarked) [Lactose] |  | Kd ([1]; 298 K, independent single-site model, reference compound): 644 µM
CO[C@H]1O[C@H](Cn2cc(CNC(=O)CCC(=O)N[C@@H]3O[C@H](CO)[C@H](O)[C@H](O)[C@H]3O)nn2)[C@@H](O)[C@H](O)[C@H]1O [NGS] | 1620 | 
CO[C@H]1O[C@H](Cn2cc(CSC[C@H]3O[C@@H](S[C@@H]4O[C@H](CO)[C@H](O)[C@H](O)[C@H]4O)[C@H](O)[C@@H](O)[C@@H]3O)nn2)[C@@H](O)[C@H](O)[C@H]1O [STGD] | 420 | 
C#CCSC[C@H]1O[C@@H](S[C@@H]2O[C@H](CO)[C@H](O)[C@H](O)[C@H]2O)[C@H](O)[C@@H](O)[C@@H]1O [STG] | 552 | 
OC[C@H]1O[C@@H](S[C@@H]2O[C@H](CO)[C@H](O)[C@H](O)[C@H]2O)[C@H](O)[C@@H](O)[C@H]1O [TDG] |  | Kd [1]: 524 µM
O=C(CCC(=O)N[C@@H]1O[C@H](CO)[C@H](O)[C@H](O)[C@H]1O)NCc1cn([C@H]2CO[C@H]3[C@@H]2OC[C@@H]3n2cc(CNC(=O)CCC(=O)N[C@@H]3O[C@H](CO)[C@H](O)[C@H](O)[C@H]3O)nn2)nn1 [diNGS] | 698 | 
O=C(NCc1cn(C2COC3C2OCC3n2cc(CNC(=O)[C@H](O)[C@@H](O)C(=O)N[C@@H]3O[C@H](CO)[C@H](O)[C@H](O)[C@H]3O)nn2)nn1)[C@H](O)[C@@H](O)C(=O)N[C@@H]1O[C@H](CO)[C@H](O)[C@H](O)[C@H]1O (some centres unmarked) [diNGT] | 544 | 
OC[C@H]1O[C@@H](S[C@@H]2O[C@H](CSCc3cn(C[C@H]4O[C@H](O[C@H]5O[C@H](Cn6cc(CSC[C@H]7O[C@@H](S[C@@H]8O[C@H](CO)[C@H](O)[C@H](O)[C@H]8O)[C@H](O)[C@@H](O)[C@@H]7O)nn6)[C@@H](O)[C@H](O)[C@H]5O)[C@H](O)[C@@H](O)[C@@H]4O)nn3)[C@@H](O)[C@H](O)[C@H]2O)[C@H](O)[C@@H](O)[C@H]1O [diSTGD] | 161 | 
